The numbers were not newly measured in patent publication US20040147490A1, “2-Amino-propanol derivatives” (priority 2001, published 2004), which cites them from elsewhere.

The structures appear in SMILES notation.

For the series the following is noted: comparison substance.

As for `CCCCCCCCCCCCC/C=C/[C@@H](O)[C@@H](N)COP(=O)(O)O` [sphingosine-1 phosphate], the negative chronotropic effects entry is listed as “negative chronotropic effects”.
